Test results taken from ChEMBL document CHEMBL1955765, “Wake-promoting agents: search for next generation modafinil: part II” (Bioorg Med Chem Lett, 2012).

Legend:
[1] = biological target: T1, Sodium-dependent dopamine transporter (Rattus norvegicus, UniProt P23977); experiment: Inhibition of rat DAT
Transporter = Transporter (Rattus norvegicus, UniProt Q63380); experiment: Inhibition of rat NET-mediated uptake
[2] = biological target: Sodium-dependent serotonin transporter (Rattus norvegicus, UniProt P31652); experiment: Inhibition of rat SERT-mediated uptake
Sequence of Sodium-dependent serotonin transporter (P31652 whole entry): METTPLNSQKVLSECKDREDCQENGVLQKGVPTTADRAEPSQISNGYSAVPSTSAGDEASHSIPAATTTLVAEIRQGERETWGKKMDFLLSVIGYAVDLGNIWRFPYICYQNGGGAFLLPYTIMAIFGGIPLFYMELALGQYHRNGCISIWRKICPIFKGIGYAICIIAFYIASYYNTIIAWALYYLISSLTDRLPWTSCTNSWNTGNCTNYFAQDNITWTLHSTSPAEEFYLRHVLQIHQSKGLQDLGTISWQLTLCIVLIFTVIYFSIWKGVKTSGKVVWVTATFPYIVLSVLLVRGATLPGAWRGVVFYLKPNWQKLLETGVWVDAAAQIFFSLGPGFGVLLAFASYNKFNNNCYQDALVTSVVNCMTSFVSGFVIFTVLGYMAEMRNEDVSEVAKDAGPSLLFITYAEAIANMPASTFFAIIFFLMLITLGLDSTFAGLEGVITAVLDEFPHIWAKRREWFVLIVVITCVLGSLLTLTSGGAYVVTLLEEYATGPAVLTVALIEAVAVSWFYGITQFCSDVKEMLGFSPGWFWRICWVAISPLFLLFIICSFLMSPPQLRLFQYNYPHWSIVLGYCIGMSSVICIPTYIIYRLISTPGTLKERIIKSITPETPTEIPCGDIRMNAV

Cytochrome P450 2C19 = Cytochrome P450 2C19 (Homo sapiens, UniProt P33261); experiment: Inhibition of CYP2C19 in human microsome; type: ADME
Sequence of Cytochrome P450 2C19 (P33261 whole entry): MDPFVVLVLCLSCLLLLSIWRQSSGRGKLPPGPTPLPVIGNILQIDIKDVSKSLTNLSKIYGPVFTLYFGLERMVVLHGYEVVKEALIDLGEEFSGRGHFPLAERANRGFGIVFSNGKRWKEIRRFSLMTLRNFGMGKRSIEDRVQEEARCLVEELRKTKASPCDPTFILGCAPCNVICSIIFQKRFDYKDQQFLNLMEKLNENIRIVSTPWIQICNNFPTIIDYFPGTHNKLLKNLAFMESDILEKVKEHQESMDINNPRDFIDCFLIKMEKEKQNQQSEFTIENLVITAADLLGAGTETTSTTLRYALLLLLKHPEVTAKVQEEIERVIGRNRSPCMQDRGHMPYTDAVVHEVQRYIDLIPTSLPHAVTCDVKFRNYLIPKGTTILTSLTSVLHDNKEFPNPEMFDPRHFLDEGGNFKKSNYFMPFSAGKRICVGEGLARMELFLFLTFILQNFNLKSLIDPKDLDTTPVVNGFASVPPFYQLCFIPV

Cytochrome P450 3A4 = Cytochrome P450 3A4 (Homo sapiens, UniProt P08684); experiment: Inhibition of CYP3A4 in human microsome; type: ADME
Sequence of Cytochrome P450 3A4 (P08684 whole entry): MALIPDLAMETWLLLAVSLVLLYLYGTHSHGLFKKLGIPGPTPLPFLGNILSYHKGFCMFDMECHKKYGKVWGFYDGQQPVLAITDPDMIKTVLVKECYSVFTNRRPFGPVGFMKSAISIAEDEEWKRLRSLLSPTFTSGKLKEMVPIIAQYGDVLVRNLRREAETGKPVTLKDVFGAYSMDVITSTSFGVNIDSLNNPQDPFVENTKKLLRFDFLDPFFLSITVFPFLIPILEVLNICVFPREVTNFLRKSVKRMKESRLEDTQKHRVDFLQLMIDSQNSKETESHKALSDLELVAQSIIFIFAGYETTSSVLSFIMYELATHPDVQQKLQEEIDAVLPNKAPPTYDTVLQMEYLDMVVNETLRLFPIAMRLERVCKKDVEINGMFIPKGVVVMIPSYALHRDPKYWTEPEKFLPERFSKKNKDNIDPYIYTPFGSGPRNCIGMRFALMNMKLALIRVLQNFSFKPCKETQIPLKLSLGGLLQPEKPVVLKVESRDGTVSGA

Cytochrome P450 3A5 = Cytochrome P450 3A5 (Homo sapiens, UniProt P20815); experiment: Inhibition of CYP3A5 in human microsome; type: ADME
Sequence of Cytochrome P450 3A5 (P20815 whole entry): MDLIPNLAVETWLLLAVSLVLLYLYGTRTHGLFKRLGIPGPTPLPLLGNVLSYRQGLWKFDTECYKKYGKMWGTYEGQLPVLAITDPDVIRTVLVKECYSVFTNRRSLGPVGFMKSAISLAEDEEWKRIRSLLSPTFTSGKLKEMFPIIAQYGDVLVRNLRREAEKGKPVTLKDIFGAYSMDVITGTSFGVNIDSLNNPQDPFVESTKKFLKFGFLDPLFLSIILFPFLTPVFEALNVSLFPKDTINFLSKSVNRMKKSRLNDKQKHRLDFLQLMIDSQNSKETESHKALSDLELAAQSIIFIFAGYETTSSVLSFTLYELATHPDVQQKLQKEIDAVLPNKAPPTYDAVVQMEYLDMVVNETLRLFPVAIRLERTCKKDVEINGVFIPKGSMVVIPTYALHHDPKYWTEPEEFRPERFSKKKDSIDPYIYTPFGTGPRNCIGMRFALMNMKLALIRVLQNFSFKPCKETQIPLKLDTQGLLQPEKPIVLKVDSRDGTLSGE

Cytochrome P450 2D6 = Cytochrome P450 2D6 (Homo sapiens, UniProt P10635); experiment: Inhibition of CYP2D6 in human microsome; type: ADME
Sequence of Cytochrome P450 2D6 (P10635 whole entry): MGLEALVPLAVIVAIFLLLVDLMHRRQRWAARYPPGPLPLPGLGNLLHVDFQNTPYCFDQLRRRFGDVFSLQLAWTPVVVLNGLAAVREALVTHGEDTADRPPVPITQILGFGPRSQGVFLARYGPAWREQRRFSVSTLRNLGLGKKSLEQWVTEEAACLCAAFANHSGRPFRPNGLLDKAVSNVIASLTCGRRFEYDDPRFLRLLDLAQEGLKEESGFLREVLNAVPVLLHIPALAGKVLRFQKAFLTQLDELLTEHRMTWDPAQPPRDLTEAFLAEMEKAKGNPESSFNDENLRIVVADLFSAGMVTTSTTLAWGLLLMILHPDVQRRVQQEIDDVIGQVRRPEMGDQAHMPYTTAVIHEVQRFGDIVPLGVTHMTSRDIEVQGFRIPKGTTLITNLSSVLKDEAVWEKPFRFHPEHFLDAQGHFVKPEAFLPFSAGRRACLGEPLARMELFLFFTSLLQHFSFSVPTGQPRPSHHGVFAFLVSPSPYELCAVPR

Cytochrome P450 2C9 = Cytochrome P450 2C9 (Homo sapiens, UniProt P11712); experiment: Inhibition of CYP2C9 in human microsome; type: ADME
Sequence of Cytochrome P450 2C9 (P11712 whole entry): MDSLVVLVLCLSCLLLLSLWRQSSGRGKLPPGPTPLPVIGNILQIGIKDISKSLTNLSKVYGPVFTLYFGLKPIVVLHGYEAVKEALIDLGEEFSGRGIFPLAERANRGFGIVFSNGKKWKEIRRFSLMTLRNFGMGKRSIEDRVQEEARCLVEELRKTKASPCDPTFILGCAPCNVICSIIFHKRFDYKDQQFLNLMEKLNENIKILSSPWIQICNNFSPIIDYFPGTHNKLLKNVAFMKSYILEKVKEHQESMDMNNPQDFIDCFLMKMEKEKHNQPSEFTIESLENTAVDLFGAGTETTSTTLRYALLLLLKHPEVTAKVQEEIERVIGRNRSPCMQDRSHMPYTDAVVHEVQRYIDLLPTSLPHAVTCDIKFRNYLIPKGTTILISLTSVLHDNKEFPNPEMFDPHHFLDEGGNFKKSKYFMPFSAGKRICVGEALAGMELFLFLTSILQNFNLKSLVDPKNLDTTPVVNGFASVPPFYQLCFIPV

CYP1A1 = biological target: T2, CYP1A1 (Homo sapiens, UniProt P04798); experiment: (§1) Inhibition of CYP1A1 in human microsome at 100 uM; type: ADME, microsomes; conditions: human microsomes
T2 sequence (P04798 whole entry): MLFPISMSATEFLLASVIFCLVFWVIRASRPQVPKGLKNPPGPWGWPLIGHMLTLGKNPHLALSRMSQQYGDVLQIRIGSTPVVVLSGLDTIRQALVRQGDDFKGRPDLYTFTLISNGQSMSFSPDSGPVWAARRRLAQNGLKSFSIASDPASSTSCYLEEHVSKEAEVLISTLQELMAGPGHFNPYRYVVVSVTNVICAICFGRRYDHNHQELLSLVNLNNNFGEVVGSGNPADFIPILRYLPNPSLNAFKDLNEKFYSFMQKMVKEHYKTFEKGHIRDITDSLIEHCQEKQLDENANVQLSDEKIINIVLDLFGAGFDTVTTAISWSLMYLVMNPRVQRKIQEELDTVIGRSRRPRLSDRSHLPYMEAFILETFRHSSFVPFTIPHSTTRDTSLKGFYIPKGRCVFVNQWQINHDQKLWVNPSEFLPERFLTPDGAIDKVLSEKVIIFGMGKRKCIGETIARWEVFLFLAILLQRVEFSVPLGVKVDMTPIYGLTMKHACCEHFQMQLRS

CYP1A2 = biological target: T3, CYP1A2 (Homo sapiens, UniProt P05177); experiment: (§2) Inhibition of CYP1A2 in human microsome at 100 uM; type: ADME, microsomes; conditions: human microsomes
T3 sequence (P05177 whole entry): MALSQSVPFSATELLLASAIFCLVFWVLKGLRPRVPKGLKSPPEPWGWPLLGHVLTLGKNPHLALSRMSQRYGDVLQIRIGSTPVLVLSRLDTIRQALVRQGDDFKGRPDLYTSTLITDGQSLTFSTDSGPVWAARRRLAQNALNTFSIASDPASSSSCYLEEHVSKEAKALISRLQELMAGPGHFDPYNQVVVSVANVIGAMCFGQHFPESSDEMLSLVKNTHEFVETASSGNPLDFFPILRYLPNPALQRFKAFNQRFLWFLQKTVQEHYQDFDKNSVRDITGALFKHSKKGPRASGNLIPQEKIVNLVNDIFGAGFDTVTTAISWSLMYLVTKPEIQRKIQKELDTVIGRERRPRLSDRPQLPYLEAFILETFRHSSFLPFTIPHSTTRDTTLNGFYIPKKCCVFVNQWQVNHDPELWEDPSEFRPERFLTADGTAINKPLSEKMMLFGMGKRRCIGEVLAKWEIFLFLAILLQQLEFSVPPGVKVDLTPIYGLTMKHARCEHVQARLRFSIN

Rattus norvegicus = experiment: Wake promoting activity in Sprague-Dawley rat assessed as increase of wake duration at 100 mg/kg, ip after 4 hrs (reference value: 79.2 +/- 7.2 mins); type: functional; conditions: route intraperitoneal
[3] = biological target: Transporter (Rattus norvegicus) (UniProt Q63380); experiment: Inhibition of rat NET at 10 uM
Sequence of Transporter (Rattus norvegicus) (Q63380 as listed by the source): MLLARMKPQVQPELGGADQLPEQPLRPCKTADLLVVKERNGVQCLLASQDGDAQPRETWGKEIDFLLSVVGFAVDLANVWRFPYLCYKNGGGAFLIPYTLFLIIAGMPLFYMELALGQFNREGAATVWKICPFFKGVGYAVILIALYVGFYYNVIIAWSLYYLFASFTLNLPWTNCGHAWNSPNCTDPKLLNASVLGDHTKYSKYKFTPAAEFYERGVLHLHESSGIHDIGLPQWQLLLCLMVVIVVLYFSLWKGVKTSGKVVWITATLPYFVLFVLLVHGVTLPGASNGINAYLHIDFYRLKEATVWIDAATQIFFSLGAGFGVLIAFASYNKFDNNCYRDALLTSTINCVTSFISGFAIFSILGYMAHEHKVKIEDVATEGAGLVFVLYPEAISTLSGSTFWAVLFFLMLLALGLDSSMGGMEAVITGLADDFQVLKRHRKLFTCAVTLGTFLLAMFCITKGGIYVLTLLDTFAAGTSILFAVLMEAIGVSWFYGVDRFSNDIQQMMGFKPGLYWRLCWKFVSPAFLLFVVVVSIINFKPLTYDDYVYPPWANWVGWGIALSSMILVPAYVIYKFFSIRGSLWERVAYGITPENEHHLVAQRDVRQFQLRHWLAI

[4] = biological target: Sodium-dependent serotonin transporter (Rattus norvegicus) (UniProt P31652); experiment: Inhibition of rat SERT at 10 uM
Sequence of Sodium-dependent serotonin transporter (Rattus norvegicus) (P31652 whole entry): as the sequence (P31652 whole entry) above

[5] = biological target: T1, Sodium-dependent dopamine transporter; experiment: Inhibition of rat DAT-mediated uptake
Cytochrome P450 1A1 = biological target: T4, Cytochrome P450 1A1 (Homo sapiens, UniProt P04798); experiment: as §1; type: ADME, microsomes; conditions: microsomes, 100 µM
T4 sequence (P04798 whole entry): T2 sequence (P04798 whole entry)

Cytochrome P450 1A2 = biological target: T5, Cytochrome P450 1A2 (Homo sapiens, UniProt P05177); experiment: as §2; type: ADME, microsomes; conditions: microsomes, 100 µM
T5 sequence (P05177 whole entry): T3 sequence (P05177 whole entry)

T1 sequence (P23977 whole entry): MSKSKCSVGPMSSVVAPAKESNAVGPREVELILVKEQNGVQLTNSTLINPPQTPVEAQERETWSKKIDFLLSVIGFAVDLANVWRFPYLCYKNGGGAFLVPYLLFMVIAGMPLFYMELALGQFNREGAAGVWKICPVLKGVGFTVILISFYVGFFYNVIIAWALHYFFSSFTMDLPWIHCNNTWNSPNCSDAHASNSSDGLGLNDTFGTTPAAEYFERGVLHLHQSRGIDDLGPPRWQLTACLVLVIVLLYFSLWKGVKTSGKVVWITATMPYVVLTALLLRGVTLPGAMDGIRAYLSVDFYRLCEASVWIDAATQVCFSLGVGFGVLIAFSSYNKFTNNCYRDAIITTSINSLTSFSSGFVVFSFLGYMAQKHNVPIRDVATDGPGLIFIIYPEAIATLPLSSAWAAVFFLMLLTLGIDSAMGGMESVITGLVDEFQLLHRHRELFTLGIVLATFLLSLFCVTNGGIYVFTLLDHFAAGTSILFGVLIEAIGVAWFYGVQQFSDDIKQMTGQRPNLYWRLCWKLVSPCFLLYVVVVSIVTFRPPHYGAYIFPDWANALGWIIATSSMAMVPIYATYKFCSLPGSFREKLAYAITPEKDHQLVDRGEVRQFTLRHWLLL
Sequence of Transporter (Q63380 whole entry): as the sequence (Q63380 as listed by the source) above

| IC50 [1] [µM] | IC50 (Transporter) [µM] | IC50 [2] [µM] | IC50 (Cytochrome P450 2C19) [µM] | IC50 (Cytochrome P450 3A4) [µM] | IC50 (Cytochrome P450 3A5) [µM] | IC50 (Cytochrome P450 2D6) [µM] | IC50 (Cytochrome P450 2C9) [µM] | inhibition at 100 µM (CYP1A1) [%] | inhibition at 100 µM (CYP1A2) [%] | inhibition [3] [%] | inhibition [4] [%] | IC50 [5] [µM] | inhibition (INH) (Cytochrome P450 1A1) [%] | inhibition (INH) (Cytochrome P450 1A2) [%] | Compound | Time (Rattus norvegicus) [min] |
| --- | --- | --- | --- | --- | --- | --- | --- | --- | --- | --- | --- | --- | --- | --- | --- | --- |
| 0.4 | 11 | > 300 | 174 | 139 | 139 | 177 | 233 | 14 | 14 | – | – | – | – | – | NC(=O)C[S+]([O-])Cc1ccccc1-c1ccc(Cl)cc1 (single isomer, unassigned; (-)) [listing 1 of 2 here] | 238.5 |
| – | – | – | – | – | – | – | – | – | – | 16 | 3 | – | – | – | NC(=O)C[S+]([O-])Cc1ccccc1-c1ccc(Cl)cc1 (single isomer, unassigned; (-)) [listing 2 of 2 here] | – |
| 4.2 | 32 | > 300 | 112 | 159 | 159 | 151 | 129 | – | – | – | – | 3.8 | 20 | 20 | NC(=O)C[S+]([O-])Cc1ccccc1-c1ccc(Cl)cc1 (single isomer, unassigned; (+)) [listing 1 of 2 here] | 227.1 |
| – | – | – | – | – | – | – | – | – | – | 12 | 4 | – | – | – | NC(=O)C[S+]([O-])Cc1ccccc1-c1ccc(Cl)cc1 (single isomer, unassigned; (+)) [listing 2 of 2 here] | – |
